In this assay the test system is FD (familial dysautomonia) IKBKAP minigene, exon 20 inclusion, in HEK293T cells. In words: Primary splicing assay (FD IKBKAP minigene, Firefly/Renilla luciferase reporter in HEK293T). In kind it is cell-based, human. As to conditions: for EC (maximum kinetin efficacy) / Emax: Homo sapiens, HEK-293T; for EC (maximum kinetin efficacy): HEK293T, read-out: ECk (compound concentration at which the maximum kinetin efficacy (200 μM) is reached); for ECk (RT-PCR): determined by RT-PCR, footnote a Firefly inhibitor, footnote b Renilla interference. On the procedure: As used herein, the expression “ECk” refers to the compound concentration at which the maximum kinetin efficacy (200 μM) is reached.
Splicing analysis was made possible by using an FD (familial dysautomonia) IKBKAP minigene which contained exon 19 through exon 21, including intervening introns, and also the T→C Thymine to cytosine transition located 6 base-pairs from the end of IKBKAP exon 20; See SEQ ID NO:3 for the complete sequence of plasmid pcDNA3.1/V5HisTOPO with Renilla-Familial Dysautonomia minigene-Firefly. Firefly luciferase (SEQ ID NO:14) was utilized as a splicing reporter, located downstream of exon 21, and Renilla luciferase (SEQ ID NO:13) was used as a control, located upstream of exon 19. The sequence of exon 19 is presented as SEQ ID NO:7; the Intron between Exon 19 and Exon 20 is SEQ ID NO:8; exon 20 is SEQ ID NO:9; the intron between […]; exon 21 is SEQ ID NO: 11, and the spliced sequence of exons 19-20-21 is SEQ ID NO:12. HEK293T cells were plated in a 6-well plate 24 hours prior to transfection. Transfection was carried out using a mixture of Opti-MEM (GIBCO ref. 31985), IKBKAP minigene, and Fugene HID (PROMEGA ref. E2311), incubated in DMEM media containing HEK293T cells at 37° C. The ratio of Opti-MEM, minigene, and Fugene was kept at approximately 9:1.5:1, with a total volume of 150 μL of transfection mixture applied per well.
After 4 hours of transfection, the cells were then plated in a 96-well plate coated with poly-L-lysine (SIGMA cat.P4707) for treatment scheduled 24 hours later. […] After 24 hours of treatment, cells were washed in the poly-L-lysine coated 96-well plate using PBS and subsequently harvested using Passive Lysis Buffer (Promega cat.E196). Cell lysate was transferred to a black and white 96-well plate and analyzed for splicing correction using a Glomax luminometer (PROMEGA GloMax® 96 Microplate Luminometer w/Dual Injectors cat.E6521) and Promega Dual Glo Firefly and Stop and Glo Renilla reagents (Cat.E196). The compound's ability to correct splicing and promote exon 20 inclusion was marked by an increase in Firefly signal. Renilla signal, which is independent of exon 20 inclusion, was used to correct for cell number. Using the ratio of Firefly to Renilla signal, a dose response curve was produced, which referenced kinetin and DMSO Firefly/Renilla ratios as positive and negative controls, respectively.

The mark [1] stands for this setting: Firefly/Renilla ratio, 24 hours of treatment.
Where [2] appears, read: max efficacy in Primary Assay, Firefly/Renilla ratio, kinetin and DMSO as positive and negative controls, 24 hours of treatment, read-out: Emax (%).
The mark [3] stands for this setting: max efficacy in Primary Assay, value flagged footnote a: Firefly inhibitor, read-out: Emax (%).

Molecules are shown by their SMILES. Like-named read-outs stand apart in the source and are kept apart here.

Consider `Nc1nc2c(NCc3ccco3)nc(Cl)nc2[nH]1` [(146)], for which the EC (maximum kinetin efficacy) under setting [1] was found to be 9.41 µM. Further, the maximum response (Emax) under setting [2] is 154%.
Take `Cc1cc2c(NCc3nccs3)nc(Cl)nc2[nH]1` [(147)]: the maximal response (Emax) under setting [2] was 80%.
Still for that read-out and setting: the value for `N#Cc1c[nH]c2nc(Cl)nc(NCc3nccs3)c12` [(148)] was 62%.
Regarding `FCCn1ccc2c(NCc3ccco3)nc(Cl)nc21` [(150)], the “ECk (RT-PCR)” value lay within 1 to 10 µM. Besides, under “max efficacy, value marked (RT-PCR), footnote a: Firefly inhibitor, read-out: Emax (%) (RT-PCR)”, the maximum response (Emax) worked out at 320%.
Regarding `N#Cc1c[nH]c2nc(Cl)nc(NCc3ccncc3)c12` [(151)], the maximal effect (Emax) under setting [2] is 73%.
Take `N#Cc1c[nH]c2nc(Cl)nc(NCc3ccncn3)c12` [(152)]: the Emax under setting [2] was 35%.
Same read-out and setting: as for `CN(C)C(=O)Cn1ccc2c(NCc3ccco3)nc(Cl)nc21` [(153)], the figure is 20%.
Take `Cc1cc2c(NCc3ccco3)nc(Cl)nc2n1CCO` [(154)]: the EC (maximum kinetin efficacy) under setting [1] amounted to 22.2 µM. Moreover, under setting [2], the maximal effect (Emax) turned out to be 151%.
In the case of `CC(C)(O)Cn1ccc2c(NCc3ccco3)nc(Cl)nc21` [(155)], the EC (maximum kinetin efficacy) under setting [1] worked out at 22.2 µM. Under setting [3], the maximum response (Emax) was determined as 151%.
Consider `Clc1nc(NCc2ccco2)c2cc(C3CC3)[nH]c2n1` [(156)], for which, under setting [1], the EC (maximum kinetin efficacy) is 15.8 µM. Further, the maximal effect (Emax) under setting [2] turned out to be 73%.
The corresponding values for `COCc1c[nH]c2nc(Cl)nc(NCc3ccco3)c12` [(158)] are 13.4 µM and 20%.
Regarding `Cc1[nH]c2nc(Cl)nc(NCc3ccco3)c2c1F` [(159)], the “ECk (RT-PCR)” value lay in the range of 1 to 10 µM. Further, under setting [3], the Emax is 228%.
On to `FC(F)(F)CCn1ccc2c(NCc3ccco3)nc(Cl)nc21` [(160)], for which, under setting [2], the maximum response (Emax) amounted to 85%.
The same measure, in the same setting: as for `CNC(=O)Cn1ccc2c(NCc3ccco3)nc(Cl)nc21` [(161)], the figure is 65%.
For the compound `N#Cc1nc2c(NCc3ccco3)nc(Cl)nc2[nH]1` [(162)], under setting [1], the EC (maximum kinetin efficacy) amounted to 48.7 µM. Further, under setting [2], the Emax was found to be 103%.
Take `Clc1nc(NCc2cc3ccccc3o2)c2cc[nH]c2n1` [(163)]: the maximal effect (Emax) under setting [2] was determined as 35%.
The same measure, in the same setting: the value for `Clc1nc(NCc2cc3ccccc3o2)c2nc[nH]c2n1` [(164)] was 68%.
Still for that read-out and setting: as for `NC(=O)c1c[nH]c2nc(Cl)nc(NCc3ccco3)c12` [(165)], the figure is 59%; as for `COCc1cc2c(NCc3ccco3)nc(Cl)nc2[nH]1` [(166)], 80%; as for `O=C(O)Cn1ccc2c(NCc3ccco3)nc(Cl)nc21` [(167)], 37%.
For the compound `O=C(c1c[nH]c2nc(Cl)nc(NCc3ccco3)c12)N1CCCC1` [(168)], under setting [2], the Emax amounted to 54%.
On to `OCc1cc2c(NCc3ccco3)nc(Cl)nc2[nH]1` [(170)], for which the EC (maximum kinetin efficacy) under setting [1] was found to be 49.5 µM. Further, under setting [2], the maximum response (Emax) is 92%.
In the case of `Cc1nc2c(NCc3ccco3)c(C(N)=O)cnc2[nH]1` [(171)], the maximum response (Emax) under setting [2] is 48%.
On to `CNC(=O)c1c[nH]c2nc(Cl)nc(NCc3ccco3)c12` [(172)], for which the Emax under setting [2] was 61%.
On the same count and under the same terms, the value for `Clc1nc(NCc2ccco2)c2c(CN3CCCC3)c[nH]c2n1` [(173)] was 30%.
Still for that read-out and setting: as for `Clc1nc(NCc2cccnn2)c2cc[nH]c2n1` [(174)], the figure is 37%; as for `Clc1nc(NCc2ccno2)c2nc[nH]c2n1` [(175)], 29%; as for `Clc1nc(NCc2ccnnc2)c2cc[nH]c2n1` [(176)], 48%.
Regarding `CNCc1c[nH]c2nc(Cl)nc(NCc3ccco3)c12` [(177)], under setting [2], the maximal response (Emax) worked out at 60%.
The same measure, in the same setting: as for `Clc1nc(NCc2ccno2)c2cc[nH]c2n1` [(178)], the figure is 76%; as for `Clc1nc(NCc2ccnnc2)c2nc[nH]c2n1` [(179)], 49%.
The same measure, in the same setting: the value for `CN(C)Cc1c[nH]c2nc(Cl)nc(NCc3ccco3)c12` [(180)] was 28%.
Take `CNCc1cc2c(NCc3ccco3)nc(Cl)nc2[nH]1` [(181)]: the EC (maximum kinetin efficacy) under setting [1] was 8.4 µM. Further, under setting [2], the Emax was 122%.
Turning to `Clc1nc(NCc2ccco2)c2ccn(C3CCOCC3)c2n1` [(182)], the Emax under setting [2] turned out to be 20%.
In the case of `COc1nc2c(NCc3ccncc3)nc(Cl)nc2[nH]1` [(184)], the EC (maximum kinetin efficacy) under setting [1] is 3.62 µM. Moreover, the Emax under setting [2] came out at 169%.
Turning to `Clc1nc(NCc2ccnc3ccccc23)c2nc[nH]c2n1` [(185)], the Emax under setting [2] stood at 22%.
On the same count and under the same terms, the value for `Clc1nc(NCc2ccnc3ccccc23)c2cc[nH]c2n1` [(186)] was 17%; that for `CNC(=O)c1cc2c(NCc3ccco3)nc(Cl)nc2[nH]1` [(187)] was 111%.
`NC(=O)c1cc2c(NCc3ccco3)nc(Cl)nc2[nH]1` [(188)]: the EC (maximum kinetin efficacy) under setting [1] was 11.7 µM. Also, the maximal response (Emax) under setting [2] is 145%.
With `Cc1cc(CNc2nc(Cl)nc3[nH]ccc23)ccn1` [(189)], under setting [2], the Emax came to 33%.
Consider `O=C(c1cc2c(NCc3ccco3)nc(Cl)nc2[nH]1)N1CCCC1` [(190)], for which the maximum response (Emax) under setting [2] turned out to be 68%.
Consider `FCCn1ccc2c(NCc3ccncn3)nc(Cl)nc21` [(191)], for which, under setting [1], the EC (maximum kinetin efficacy) was determined as 5.92 µM. The Emax under setting [2] was found to be 231%.
For `FCCn1ccc2c(NCc3nccs3)nc(Cl)nc21` [(192)], in that order: 7.13 µM and 210%.
In the case of `FCCn1ccc2c(NCc3ccncc3)nc(Cl)nc21` [(194)], under setting [1], the EC (maximum kinetin efficacy) came to 4.49 µM. Moreover, the Emax under setting [2] was found to be 241%.
In the case of `CN(C)C(=O)c1cc2c(NCc3ccco3)nc(Cl)nc2[nH]1` [(195)], the Emax under setting [2] was 81%.
Turning to `Cc1cc(CNc2nc(Cl)nc3[nH]cnc23)ccn1` [(196)], under setting [2], the maximum response (Emax) turned out to be 7%.
The same measure, in the same setting: as for `CC(=O)N1CCC(n2ccc3c(NCc4ccco4)nc(Cl)nc32)CC1` [(197)], the figure is 14%.
Take `Clc1cc(NCc2ccco2)c2nc[nH]c2n1` [(198)]: the EC (maximum kinetin efficacy) under setting [1] was 5.01 µM. Further, under setting [2], the maximum response (Emax) is 125%.
As to `OCCNc1nc2c(NCc3ccco3)nc(Cl)nc2[nH]1` [(199)], the Emax under setting [2] was found to be 22%.
The same measure, in the same setting: as for `FC(F)(F)CN1CCC(n2ccc3c(NCc4ccco4)nc(Cl)nc32)CC1` [(200)], the figure is 11%; as for `Cc1[nH]c2nc(Cl)nc(NCc3ccncc3)c2c1F` [(201)], 27%.
Consider `CNc1nc2c(NCc3ccco3)nc(Cl)nc2n1CCO` [(202)], for which the EC (maximum kinetin efficacy) under setting [1] worked out at 9.35 µM. For the same compound, the maximal effect (Emax) under setting [2] was found to be 137%.
For the compound `CC(=O)NCCn1ccc2c(NCc3ccco3)nc(Cl)nc21` [(203)], the Emax under setting [3] amounted to 27%.
As for `Cc1[nH]c2nc(Cl)nc(NCc3ccncn3)c2c1F` [(204)], under setting [2], the Emax is 27%.
`Clc1nc(NCc2ccco2)c2c(Cl)c[nH]c2n1` [(205)]: under setting [1], the EC (maximum kinetin efficacy) worked out at 6.41 µM. Under setting [2], the maximal effect (Emax) worked out at 27%.
As to `CN(C)CCn1ccc2c(NCc3ccco3)nc(Cl)nc21` [(206)], under setting [2], the Emax amounted to 27%.
Turning to `Clc1nc(NCc2ccncc2)c2c(Cl)c[nH]c2n1` [(207)], the EC (maximum kinetin efficacy) under setting [1] stood at 75.8 µM. In addition, the maximal response (Emax) under setting [2] was 109%.
For `Clc1nc(NCc2nccs2)c2c(Cl)c[nH]c2n1` [(208)], in that order: 107 µM and 83%.
Regarding `OCCn1ncc2c(NCc3ccco3)nc(Cl)nc21` [(209)], the EC (maximum kinetin efficacy) under setting [1] came to 12.2 µM. For the same compound, the Emax under setting [2] was 176%.
For `Clc1nc(NCc2ccncn2)c2c(Cl)c[nH]c2n1` [(210)], in that order: 69.2 µM and 104%.
The corresponding values for `OCCn1cc(Cl)c2c(NCc3ccco3)nc(Cl)nc21` [(211)] are 7.73 µM and 204%.

These data come from patent US11702417B2, “Compounds for improving mRNA splicing” (The General Hospital Corporation, priority 2015, dated 2023).
